Laboratory results published in patent publication US20160237158A1, “Methods and Compositions for Targeting Tumor Microenvironment and for preventing Metastasis” (INSTITUT NATIONAL DE LA SANTÉ ET DA LA RECHERCHE MÉDICALE …, priority 2013, published 2016).

Key:
hDF [1] = test: Fibronectin expression in hDF; assay type: cell-based, human; settings: TGFβ1 stimulation
Description: Cells were grown on glass coverslips, fixed in 3% paraformaldehyde for 20 min at room temperature, rinsed twice in PBS and in 50 mM NH4Cl for 10 min and permeabilized with 0.5% Triton X-100 for 5 min. Cells were next blocked in PBS containing 1% bovine serum albumin (BSA) for 30 min and incubated with anti-alpha smooth muscle actin (1/400), or anti-fibronectin (1/400) antibodies in blocking buffer overnight at 4° C. After two washes in PBS, cells were incubated in the presence of a secondary antibody conjugated to Alexa 488 (1/400) for 40 min, rinsed twice in PBS, stained with DAPI (2 ug/ml) for 5 min, rinsed in water and the coverslips mounted onto glass slides using mounting media.

fibroblasts [2] = test: Fibroblast contractility and pro-invasive activity induced by murine breast carcinoma cell conditioned media; assay type: cell-based, mouse; design: key: +: induction; −: no induction; settings: antibodies 10 μg·ml−1
Description: (§1) In this assay, hDF or CAFs were cultured during one week in serum-free medium (with either vehicle or cytokines) or CM before embedding in matrix gel. 5×10^5 fibroblasts were embedded in a 1 ml mixture of collagen I and Matrigel18. After the gel was set at 37° C. for 1 h, 5×10^5 SCC12 were plated on top of the gel in complete media. The next day, the gel was lifted onto individual collagen coated nylon discs resting on metal bridges and fed from underneath with daily changes of complete media (with either vehicle or inhibitors), allowing the epithelial layer to grow at an air-liquid interface.
(§2) After 5 days, cultures were fixed (4% paraformaldehyde+0.25% glutaraldehyde in PBS) and processed for haematoxylin and eosin (H&E) staining by standard methods. Invasion assay was measuring the total area of SCC cells and the area of non-invading SCC cells using imageJ software (http://rsbweb.nih.gov/ij/). The value of invasion index shown is the average 1−(non-invading area/total area) of at least ten fields from three or more independent experiments. Error bars are the standard deviation.
(§3) 2.5×10^4 Fibroblasts were embedded in 100 μl of matrix gel (the Collagen-Matrigel mixture used for organotypic invasion assays) and plated into wells of a 96 well plate^57. After 1 h at 37° C., the matrices were overlaid with 100 μl serum-free medium (with either vehicle, cytokines or inhibitors) or CM. Every 2 days, medium was changed and at day 6 the gels were photographed and the respective diameters of the well and gel were measured using ImageJ. The percentage contraction was calculated using the formula 100*(well diameter−gel diameter)/well diameter.
(§4) Neutralizing antibody against LIF (AB-250-NA, R&D, Minneapolis, Minn.), IL-6 R (AB-227-NA, R&D) or TGF beta-1,2,3 (MAB1835, R&D) were used at 10 μg/ml otherwise stated. Neutralizing antibody were incubated one hour with conditioned media before being used for matrix remodelling assay and fibroblasts stimulation to neutralize the biological activity of selected cytokines.
(§5) Cancer Cells were grown to confluence, washed twice with PBS and then incubated in serum-free medium at 37° C. After 48 hours, conditioned medium was collected, centrifugated at 5000 g for 5 minutes to remove cell debris and the supernatant stored at −80° C. For immunobloting analysis, fibroblasts were stimulated with cancer cells conditioned media for 5 min, otherwise stated, and lysed as described in the immunbloting section. To analyse LIF secretion upon TGFβ-1 stimulation, fibroblasts were stimulated with 2 ng/ml TGF beta-1 for 1, 4, 24 or 48 h in serum-free medium and conditioned media was prepared as below for ELISA analysis.

fibroblasts [3] = test: Fibroblast contractility (collagen lattices) and pro-invasive activity (organotypic invasion) induced by human tumour cell conditioned media; assay type: cell-based; design: key to Fibroblasts contractile & pro-invasive phenotype: +: induction; −: no induction
Description: as §1, §2, §3, §4, §5

hDF and hCAF = test: Matrix remodelling (collagen gel contraction) assay; assay type: cell-based, human; settings: hLu-CAF and hBr-CAF cells, FIG. 6A
Description: as §3

STAT3 = STAT3 phosphorylation in fibroblasts (western blot); assay type: cell-based, human; settings: hDF stimulated by TGFβ1
Source text: (§6) For western blot analysis, antibodies against STAT3 (#9134), pY705-STAT3 (#9145), SMAD2 (#3122), pSer465/467-SMAD2 (#3108), pY1022/1023-JAK1 (#3331), MLC2 (#3672), pThr18/19-MLC2 (#3674) were purchased from Cell Signaling (Cell Signaling Technology, Beverly Mass.), α-tubulin from sigma (T4026, Sigma, Saint Louis, Mo.); JAK1 from Biolegend (#604402, Biolegend, San Diego, Calif.), GP-130 (#sc-655) and RhoA (#sc-418, Santa Cruz Biotechnology, Santa Cruz, Calif.), and alpha-smooth muscle actin (α-SMA) from Abcam (#Ab5694, Abcam, Cambridge, Mass.). For immunofluorescence staining, antibodies against α-SMA and fibronectin were purchased from Sigma (#A2547 and F3648 respectively, Sigma, Saint Louis, Mo.). Chemical inhibitors used: Pyridone 6 (#42009, Calbiochem, Los Angeles, Calif.) was used at […], SB431542 (#1614, Tocris bioscience, Ellisville, Mo.) at 10 μM, Y27632 (#1254, Tocris bioscience, Ellisville, Mo.) and Actinomycin D (#856258, Sigma, Saint Louis, USA) at 5 μg/ml.
For immunoblotting analysis, cells were lysed on ice in lysis buffer (25 mM Tris (pH 6.8), 2% Sodium dodecyl sulfate (SDS), 5% glycerol, 1% beta-mercaptoethanol, 0.01% bromophenol blue). Equal amounts of protein from each sample were loaded on sodium dodecyl sulfate-polyacrylamide gel electrophoresis, separated, and transferred onto nitrocellulose. The immunoblots were blocked by incubation in 5% bovine serum albumin, 10 mM Tris-HCl (ph7.5), 500 mM NaCl, 0.1% Tween 20 for 30 min at room temperature, probed with specific antibodies and then with secondary antibodies using common classical methods. Immunodetection was performed using chemiluminescent HRP subtrate (#WBKLS0500, Millipore, Billerica, Mass.).

hDF [4] = test: qRT-PCR of IL6 family cytokine genes in TGFβ1-stimulated hDF; assay type: cell-based, human; settings: one hour after stimulation, relative to control (Veh)
Description: RNA was isolated from total cell lysates using RNeasy Mini kit (#217004, Qiagen, Turnberry Ln Valencia, Calif.) according to the manufacturer's instructions. Reverse Transcription was performed using 500 ng cytoplasmic RNA using Superscript II reverse transcriptase (#18064-014, Invitrogen, Carlsbad, Calif.). Real time PCR was performed using Fast SYBR Green Master Mix ([…]; Applied Biosystems, Foster City, Calif.) in duplicates according to the recommendations of the manufacturer on an ABI Prism 7900HT sequence detection system (Applied Biosystems, Foster City, Calif.). Relative expression of the respective gene was determined after normalization to GAPDH and calculated with the following formula: relative expression level=2ddCT

hDF [5] = test: LIF ELISA of TGFβ1-stimulated hDF culture medium; assay type: cell-based, human; settings: after TGFβ1 stimulation
Description: For the quantitative determination of LIF protein levels secreted to the media, we used the human LIF ELISA Kit (#ELH-LIF-001, Raybiotech Inc, Norcross, Ga.) following manufacturer's specifications.
as §5

SMAD2 = SMAD2 phosphorylation in fibroblasts (western blot); assay type: cell-based, human; settings: hDF stimulated by TGFβ1
Source text: as §6
For immunoblotting analysis, cells were lysed on ice in lysis buffer (25 mM Tris (pH 6.8), 2% Sodium dodecyl sulfate (SDS), 5% glycerol, 1% beta-mercaptoethanol, 0.01% bromophenol blue). Equal amounts of protein from each sample were loaded on sodium dodecyl sulfate-polyacrylamide gel electrophoresis, separated, and transferred onto nitrocellulose. […]

[6] = A375M2 CM (h. melanoma), antibodies 10 μg·ml−1, αLIF (50)
[7] = A375P CM (h. melanoma), antibodies 10 μg·ml−1
[8] = A549 CM (h. lung carcinoma), antibodies 10 μg·ml−1
[9] = CAL27 CM (human OSCC), antibodies 10 μg·ml−1, αLIF (50)
[10] = CAL33 CM (human OSCC), antibodies 10 μg·ml−1
[11] = CAL33_LIF CM (h. engineered cell line), antibodies 10 μg·ml−1, αLIF (50)
[12] = CAL33_mock CM (h. engineered cell line), antibodies 10 μg·ml−1
[13] = CAL60 CM (human OSCC), antibodies 10 μg·ml−1
[14] = CAL166 CM (human OSCC), antibodies 10 μg·ml−1
[15] = Detroit562 CM (human OSCC), antibodies 10 μg·ml−1
[16] = LS174 CM (h. colon carcinoma), antibodies 10 μg·ml−1
[17] = MDA-MB-231 CM (breast carcinoma), antibodies 10 μg·ml−1
[18] = MDA-MB-468 CM (breast carcinoma), antibodies 10 μg·ml−1
[19] = Mel501 CM (h. melanoma), antibodies 10 μg·ml−1
[20] = Mel1205 CM (h. melanoma), antibodies 10 μg·ml−1
[21] = SCC12 CM (human OSCC), antibodies 10 μg·ml−1
[22] = SCC13 CM (human OSCC), antibodies 10 μg·ml−1
[23] = SCC25 CM (human OSCC), antibodies 10 μg·ml−1
[24] = Sbcl2 CM (h. melanoma), antibodies 10 μg·ml−1
[25] = WM35 CM (h. melanoma), antibodies 10 μg·ml−1
[26] = WM278 CM (h. melanoma), antibodies 10 μg·ml−1
[27] = WM793 CM (h. melanoma), antibodies 10 μg·ml−1

Molecule	Fibroblasts contractile & pro-invasive phenotype (fibroblasts [3]; [6])	Fibroblasts contractile & pro-invasive phenotype (fibroblasts [3]; [7])	Fibroblasts contractile & pro-invasive phenotype (fibroblasts [3]; [8])	Fibroblasts contractile & pro-invasive phenotype (fibroblasts [3]; [9])	Fibroblasts contractile & pro-invasive phenotype (fibroblasts [3]; [10])	Fibroblasts contractile & pro-invasive phenotype (fibroblasts [3]; [11])	Fibroblasts contractile & pro-invasive phenotype (fibroblasts [3]; [12])	Fibroblasts contractile & pro-invasive phenotype (fibroblasts [3]; [13])	Fibroblasts contractile & pro-invasive phenotype (fibroblasts [3]; [14])	Fibroblasts contractile & pro-invasive phenotype (fibroblasts [3]; [15])	Fibroblasts contractile & pro-invasive phenotype (fibroblasts [3]; [16])	Fibroblasts contractile & pro-invasive phenotype (fibroblasts [3]; [17])	Fibroblasts contractile & pro-invasive phenotype (fibroblasts [3]; [18])	Fibroblasts contractile & pro-invasive phenotype (fibroblasts [3]; [19])	Fibroblasts contractile & pro-invasive phenotype (fibroblasts [3]; [20])	Fibroblasts contractile & pro-invasive phenotype (fibroblasts [3]; [21])	Fibroblasts contractile & pro-invasive phenotype (fibroblasts [3]; [22])	Fibroblasts contractile & pro-invasive phenotype (fibroblasts [3]; [23])	Fibroblasts contractile & pro-invasive phenotype (fibroblasts [3]; [24])	Fibroblasts contractile & pro-invasive phenotype (fibroblasts [3]; [25])	also measured
CC(C)(C)c1nc2c3cc[nH]c(=O)c3c3cc(F)ccc3c2[nH]1 [P6, Pyridone 6]	−	−	−	−	−	−	−	−	−	−	−	−	−	−	−	−	−	−	−	−	fibronectin expression pattern (hDF [1]): slightly reduced; Fibroblasts contractile & pro-invasive phenotype (fibroblasts [2]; 4T1 CM (murine breast carcinoma)): −; Fibroblasts contractile & pro-invasive phenotype (fibroblasts [2]; 4T07 CM (murine breast carcinoma)): −; Fibroblasts contractile & pro-invasive phenotype (fibroblasts [2]; 67NR CM (murine breast carcinoma)): −; Fibroblasts contractile & pro-invasive phenotype (fibroblasts [2]; 410.4 CM (murine breast carcinoma)): −; Fibroblasts contractile & pro-invasive phenotype (fibroblasts [3]; [26]): −; Fibroblasts contractile & pro-invasive phenotype (fibroblasts [3]; [27]): −; Fibroblasts contractile & pro-invasive phenotype (fibroblasts [3]; hPK CM, antibodies 10 μg·ml−1): −; pro-invasive potential (matrix remodelling) of hCAF (hDF and hCAF): required JAK signalling to sustain their pro-invasive potential; STAT3 phosphorylation induced by TGFβ1 (STAT3): blocked
NC(=O)c1ccc(-c2nc(-c3ccc4c(c3)OCO4)c(-c3ccccn3)[nH]2)cc1 [SB431542]	+	+	+	+	−	+	−	+	+	+	+	+	+	−	+	+	+	+	−	+	Fibroblasts contractile & pro-invasive phenotype (fibroblasts [3]; [26]): +; Fibroblasts contractile & pro-invasive phenotype (fibroblasts [3]; [27]): +; Fibroblasts contractile & pro-invasive phenotype (fibroblasts [3]; hPK CM, antibodies 10 μg·ml−1): −
C[C@@H](N)[C@H]1CC[C@H](C(=O)Nc2ccncc2)CC1 [Y27632]																					pro-invasive fibroblast conversion induced by CAL33-LIF CM (fibroblasts [3]; CAL33-LIF CM): blocked; action of SCC12 and SCC13 CM (pro-invasive fibroblast activation) (fibroblasts [3]; SCC12 and SCC13 CM): completely abrogated
TGFβ1: TGF beta-1 cytokine (#100-21, Peprotech), used at 2 ng·ml-1																					increase of IL6 mRNA steady state levels (hDF [4]): 5 fold; increase of LIF mRNA steady state levels (hDF [4]): 100 fold; LIF in hDF cell culture medium, 24 h peak (hDF [5]): 200 pg/mL
siRNA GP130-IL6ST: siRNA targeting GP130-IL6ST (SEQ ID NO: 5 and 6), purchased from Dharmacon (chain 1 CUAAUUACAUUGUCUGGAA; chain 2 CUAAGGAGCAAUAUACUAU; listed as RNA, chemistry not given here)																					SMAD2 activation by TGFβ1 (SMAD2): without affecting; STAT3 phosphorylation induced by TGFβ1 (STAT3): hampered
